Experimental data published in ChEMBL document CHEMBL1124585, “Iodoaryl analogues of dioctanoylglycerol and 1-oleoyl-2-acetylglycerol as probes for protein kinase C” (J Med Chem, 1989).

Biological target: Protein kinase C (PKC) (Rattus norvegicus) (UniProt P05696+P68403+P09216+P63319+P09215+Q64617+Q9WTQ0+P09217)
Assay: Activation of protein kinase C
Format: protein assay

Row | Dose [µM] | Structure (SMILES)
1 | 1 | CC(=O)OCC(CO)OC(=O)CCCCCCCCCCCCCCc1cccc(I)c1 (stereo not drawn)
2 | 1 | CCCCCCCC(=O)OCC(CO)OC(=O)CCc1cccc(I)c1 (stereo not drawn)
3 | 1 | CC(=O)OC(CO)COC(=O)CCCCCCCCCCCCCCc1cccc(I)c1 (stereo not drawn)
